Assay results reported in patent US20120141384A1, “ANTIBACTERIAL CONJUGATED BORONIC ACIDS AND PHARMACEUTICAL COMPOSITIONS THEREOF” (priority 2008, published 2012).

Key:
[1] = test system: Pseudomonas aeruginosa (ATCC No. 9027); assay: Antimicrobial efficacy (challenge) test, plate count; type: cell-based; details: for No. of Surviving Microorganisms CFU/g: 25° C., initial contamination 4.3 × 10^6 CFU/g; for antimicrobial effect in words: following one day of exposure
Description: (§1) 2-FBP was obtained from Sigma Aldrich. Test Procedure: The test consisted of challenging the test solutions with specified microorganisms, storing the inoculated preparations at a prescribed temperature, removing the inoculated samples at specified intervals of time and counting the number of viable organisms in the withdrawn samples using a plate count procedure. The technical details were as follows: • The test was conducted in 20 g samples. • Each sample was separately inoculated by one of the test organisms. • The inoculated containers were incubated at 25° C. together with an uninoculated sample. • The inoculated container with P. acnes was incubated under anaerobic conditions at the same temperature. • The culture media for P. acnes was Brain Heart Infusion Agar instead of Tryptic Soy Agar. Formulations were challenged by introducing the following microorganisms: Pseudomonas aeruginosa (ATCC No. 9027) Counting of microorganisms in the inoculated samples was performed 1, 2 and 7 days following inoculation. The number of colony-forming units (cfu/g) determined at each incubation time point was compared to the number of cfu/g measured in non-inoculated control samples of FPB solutions. Antimicrobial effectiveness results, expressed as colony forming units of surviving microorganisms in the FPB solutions (cfu/g), are detailed in Tables 1-3.

[2] = test system: Escherichia coli (ATCC No. 8739); assay: as above; type: cell-based; details: for No. of Surviving Microorganisms CFU/g: 25° C., initial contamination 2.8 × 10^5 CFU/g; for antimicrobial effect in words: following one day of exposure
Description: as §1, with “Escherichia coli” for “Pseudomonas aeruginosa”, “8739)” for “9027)”

[3] = test system: Propionbacterium acnes ATCC 11827; assay: Antimicrobial efficacy (challenge) test, plate count, anaerobic incubation; type: cell-based; details: for No. of Surviving Microorganisms CFU/g: 25° C. anaerobic, initial contamination 4.1 × 10^5 CFU/g; for antimicrobial effect in words: following one day of exposure
Description: as §1, with “The purpose of this study was to assess the antimicrobial efficacy of 2-Formylphenyl boronic acid (FPB) aqueous solutions, in different concentrations of 10 mM, 20 mM and 40 mM. 2-FBP” for “2-FBP”, “Propionbacterium acnes ATCC 11827” for “Pseudomonas aeruginosa (ATCC No. 9027)”

[4] = test system: Staphylococcus aureus (ATCC No. 6538); assay: Antimicrobial efficacy (challenge) test, plate count; type: cell-based; details: for No. of Surviving Microorganisms CFU/g: 25° C., initial contamination 5.2 × 10^5 CFU/g; for antimicrobial effect in words: following one day of exposure
Description: as §1, with “The purpose of this study was to assess the antimicrobial efficacy of 2-Formylphenyl boronic acid (FPB) aqueous solutions, in different concentrations of 10 mM, 20 mM and 40 mM. 2-FBP” for “2-FBP”, “Staphylococcus aureus” for “Pseudomonas aeruginosa”, “6538)” for “9027)”

[5] = test system: Staphylococcus aureus (ATCC No. 6538); assay: as above; type: cell-based; details: 30 mM FPB aqueous solution, 25° C., initial contamination 5.2 × 10^5 CFU/g
[6] = test system: Propionbacterium acnes ATCC 11827; assay: Antimicrobial efficacy (challenge) test, plate count, anaerobic incubation; type: cell-based; details: 30 mM FPB aqueous solution, 25° C. anaerobic, initial contamination 4.1 × 10^5 CFU/g
[7] = Solubility and compatibility of FPB in the carrier; type: physicochemical; details: for solubility in the carrier: 20 mM and 40 mM
From the text: The active agent FPB is soluble in the carrier.

[8] = Stability of 2-FBA under formulation conditions, amount by chromatography; type: physicochemical
Description: 2-Formylphenyl Boronic Acid (2-FBA) was exposed to various formulation conditions, in order to assess its optimized formulation stability properties. The amount of 2-FBA was assessed prior to the experiment and following the exposure to the different conditions by chromatography. The conditions are detailed in the following Table.

[9] = 10 mM FPB aqueous solution, 1 week
[10] = 10 mM FPB aqueous solution, 1 days
[11] = 10 mM FPB aqueous solution, 2 days
[12] = 20 mM FPB aqueous solution, 1 week
[13] = 20 mM FPB aqueous solution, 1 days
[14] = 20 mM FPB aqueous solution, 2 days
[15] = Solution 1 (10 mM FPB), within two days of exposure
[16] = solutions, concentrations of 10 mM, 20 mM and 40 mM

With `O=Cc1ccccc1B(O)O` [FPB, 2-Formylphenyl boronic acid] the “No. of Surviving Microorganisms CFU/g” value [1, 9] was under 10 CFU/g, the “No. of Surviving Microorganisms CFU/g” value [1, 10] was 4.3 × 10^4 CFU/g and the “No. of Surviving Microorganisms CFU/g” value [1, 11] was 5.0 × 10^1 CFU/g. For the same compound, the “No. of Surviving Microorganisms CFU/g” value [1, 12] was under 10 CFU/g, the “No. of Surviving Microorganisms CFU/g” value [1, 13] was under 10 CFU/g and the “No. of Surviving Microorganisms CFU/g” value [1, 14] was under 10 CFU/g. The “log reduction of the count from the initial load” value (shortened to “log reduction of the count”) [1, 15] was 2.0 log, the “antimicrobial effect in words” value ([1]; Solution 2 (20 mM FBA)) was “completely eradicated” and the “antimicrobial effect in words” value ([1]; Solution 3 (40 mM FBA)) was “completely eradicated”. For the same compound, the “effectiveness (conclusion)” value [1, 16] was “effective”, the “No. of Surviving Microorganisms CFU/g” value [2, 9] was under 10 CFU/g and the “No. of Surviving Microorganisms CFU/g” value [2, 10] was 6.4 × 10^4 CFU/g. The “No. of Surviving Microorganisms CFU/g” value [2, 11] was under 10 CFU/g, the “No. of Surviving Microorganisms CFU/g” value [2, 12] was under 10 CFU/g and the “No. of Surviving Microorganisms CFU/g” value [2, 13] was 7.6 × 10^3 CFU/g. For the same compound, the “No. of Surviving Microorganisms CFU/g” value [2, 14] was under 10 CFU/g, the “No. of Surviving Microorganisms CFU/g” value ([2]; 30 mM FPB aqueous solution, 1 week) was under 10 CFU/g and the “No. of Surviving Microorganisms CFU/g” value ([2]; 30 mM FPB aqueous solution, 1 days) was under 10 CFU/g. For the same compound, the “No. of Surviving Microorganisms CFU/g” value ([2]; 30 mM FPB aqueous solution, 2 days) was under 10 CFU/g, the “log reduction of the count” value [2, 15] was 2.0 log and the “antimicrobial effect in words” value ([2]; Solution 2 (20 mM FBA)) was “completely eradicated”. For the same compound, the “antimicrobial effect in words” value ([2]; Solution 3 (40 mM FBA)) was “completely eradicated”, the “effectiveness (conclusion)” value [2, 16] was “effective” and the “No. of Surviving Microorganisms CFU/g” value [3, 9] was under 10 CFU/g. The “No. of Surviving Microorganisms CFU/g” value [3, 10] was under 10 CFU/g, the “No. of Surviving Microorganisms CFU/g” value [3, 11] was under 10 CFU/g and the “No. of Surviving Microorganisms CFU/g” value [3, 12] was under 10 CFU/g. For the same compound, the “No. of Surviving Microorganisms CFU/g” value [3, 13] was under 10 CFU/g, the “No. of Surviving Microorganisms CFU/g” value [3, 14] was under 10 CFU/g and the “antimicrobial effect in words” value ([3]; Solution 1 (10 mM FPB)) was “completely destroyed”. The “antimicrobial effect in words” value ([3]; Solution 2 (20 mM FBA)) was “completely eradicated”, the “antimicrobial effect in words” value ([3]; Solution 3 (40 mM FBA)) was “completely eradicated” and the “effectiveness (conclusion)” value [3, 16] was “effective”. For the same compound, the “No. of Surviving Microorganisms CFU/g” value [4, 9] was under 10 CFU/g, the “No. of Surviving Microorganisms CFU/g” value [4, 10] was 4.5 × 10^4 CFU/g and the “No. of Surviving Microorganisms CFU/g” value [4, 11] was 5.4 × 10^2 CFU/g. The “No. of Surviving Microorganisms CFU/g” value [4, 12] was under 10 CFU/g, the “No. of Surviving Microorganisms CFU/g” value [4, 13] was under 10 CFU/g and the “No. of Surviving Microorganisms CFU/g” value [4, 14] was under 10 CFU/g. The “log reduction of the count” value [4, 15] was 2.0 log, the “antimicrobial effect in words” value ([4]; Solution 2 (20 mM FBA)) was “completely eradicated” and the “antimicrobial effect in words” value ([4]; Solution 3 (40 mM FBA)) was “completely eradicated”. For the same compound, the “effectiveness (conclusion)” value [4, 16] was “effective”, the “No. of Surviving Microorganisms CFU/g” value ([5]; 1 week) was under 10 CFU/g and the “No. of Surviving Microorganisms CFU/g” value ([5]; 1 days) was under 10 CFU/g. For the same compound, the “No. of Surviving Microorganisms CFU/g” value ([5]; 2 days) was under 10 CFU/g, the “No. of Surviving Microorganisms CFU/g” value ([6]; 1 week) was under 10 CFU/g and the “No. of Surviving Microorganisms CFU/g” value ([6]; 1 days) was under 10 CFU/g. The “No. of Surviving Microorganisms CFU/g” value ([6]; 2 days) was under 10 CFU/g, the “interference with foam formation” value ([7]; emulsion carrier (Example 2)) was “does not interfere” and the “interference with the formation of an emulsion” value ([7]; emulsion carrier (Example 2)) was “does not interfere”. The “solubility in the carrier” value ([7]; emulsion carrier (Example 2)) was “soluble”, the “interference with foam formation” value ([7]; gel carrier (Example 3)) was “does not interfere” and the “solubility in the carrier” value ([7]; gel carrier (Example 3)) was “soluble”. The stability in words ([8]; UV light) was “relatively stable”, the stability in words ([8]; heat) was “relatively stable” and the stability in words ([8]; in the presence of H2O2) was “underwent degradation”. The stability in words ([8]; in the presence of HCl (0.1 N)) was “underwent degradation” and the stability in words ([8]; in the presence of NaOH (0.1 N)) was “relatively stable”.
